Legend:
[1] = target: T1, Glutaminase kidney isoform, mitochondrial (Homo sapiens, UniProt O94925)
T1 sequence (O94925 whole entry): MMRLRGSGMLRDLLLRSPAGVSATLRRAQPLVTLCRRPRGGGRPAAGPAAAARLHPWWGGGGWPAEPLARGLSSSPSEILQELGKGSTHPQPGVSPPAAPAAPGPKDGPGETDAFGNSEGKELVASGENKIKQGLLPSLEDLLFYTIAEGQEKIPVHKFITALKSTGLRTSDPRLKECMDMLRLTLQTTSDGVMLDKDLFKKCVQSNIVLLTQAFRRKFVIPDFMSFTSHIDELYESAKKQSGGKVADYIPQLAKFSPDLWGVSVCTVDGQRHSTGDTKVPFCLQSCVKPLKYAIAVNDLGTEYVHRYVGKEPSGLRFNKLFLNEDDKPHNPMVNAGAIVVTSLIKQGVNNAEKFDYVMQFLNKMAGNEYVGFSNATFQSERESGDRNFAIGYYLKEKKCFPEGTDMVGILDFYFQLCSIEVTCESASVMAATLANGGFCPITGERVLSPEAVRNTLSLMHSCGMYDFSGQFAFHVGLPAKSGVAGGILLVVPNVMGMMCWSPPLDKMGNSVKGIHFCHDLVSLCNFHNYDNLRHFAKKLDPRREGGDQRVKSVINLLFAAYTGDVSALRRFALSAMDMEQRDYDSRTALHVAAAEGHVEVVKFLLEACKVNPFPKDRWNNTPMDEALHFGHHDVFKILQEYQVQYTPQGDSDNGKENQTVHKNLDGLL
Description: Inhibition of 6His-tagged GLS1 (63-669 residues) (unknown origin) expressed in Escherichia coli using glutamine as substrate after 15 mins by Glutamate Oxidase/ AmplexRed coupled assay

[2] = target: T1, Glutaminase kidney isoform, mitochondrial; assay: Inhibition of GLS1 in human PC3 cells assessed as cellular glutamate depletion levels after 6 hrs by Glutamate Oxidase/ AmplexRed coupled assay; type: cell-based, PC-3
[3] = tested on: NCI-H1703; assay: Antiproliferative activity against human NCI-H1703 cells assessed as reduction in cell growth after 5 days by Sytox Green dye based assay; type: functional; conditions: NCI-H1703, 120 h

IC50 [1] [nM]	IC50 [2] [nM]	SMILES	IC50 [3] [nM]
70.7	4.99	COc1cc([C@@H](OC)C(=O)Nc2nnc(N[C@@H]3CCN(c4cncnn4)C3)s2)ccc1F	107
–	–	COc1ccc([C@H](OC)C(=O)Nc2nnc(N[C@@H]3CCN(c4cccnn4)C3)s2)cc1	10.8
–	–	CO[C@H](C(=O)Nc1nnc(N[C@@H]2CCN(c3cncnn3)C2)s1)c1ccccc1	3.24
